From ChEMBL document CHEMBL5291721, “A preclinical secondary pharmacology resource illuminates target-adverse drug reaction associations of marketed drugs” (Nat Commun, 2023) come the findings set out here.

The term AC50 denotes the concentration at which the activity in the assay is half-maximal.

Molecules are shown by their SMILES.

Test [1] has as its target T1, Androgen receptor (Rattus norvegicus, UniProt P15207).
T1 sequence (P15207 whole entry): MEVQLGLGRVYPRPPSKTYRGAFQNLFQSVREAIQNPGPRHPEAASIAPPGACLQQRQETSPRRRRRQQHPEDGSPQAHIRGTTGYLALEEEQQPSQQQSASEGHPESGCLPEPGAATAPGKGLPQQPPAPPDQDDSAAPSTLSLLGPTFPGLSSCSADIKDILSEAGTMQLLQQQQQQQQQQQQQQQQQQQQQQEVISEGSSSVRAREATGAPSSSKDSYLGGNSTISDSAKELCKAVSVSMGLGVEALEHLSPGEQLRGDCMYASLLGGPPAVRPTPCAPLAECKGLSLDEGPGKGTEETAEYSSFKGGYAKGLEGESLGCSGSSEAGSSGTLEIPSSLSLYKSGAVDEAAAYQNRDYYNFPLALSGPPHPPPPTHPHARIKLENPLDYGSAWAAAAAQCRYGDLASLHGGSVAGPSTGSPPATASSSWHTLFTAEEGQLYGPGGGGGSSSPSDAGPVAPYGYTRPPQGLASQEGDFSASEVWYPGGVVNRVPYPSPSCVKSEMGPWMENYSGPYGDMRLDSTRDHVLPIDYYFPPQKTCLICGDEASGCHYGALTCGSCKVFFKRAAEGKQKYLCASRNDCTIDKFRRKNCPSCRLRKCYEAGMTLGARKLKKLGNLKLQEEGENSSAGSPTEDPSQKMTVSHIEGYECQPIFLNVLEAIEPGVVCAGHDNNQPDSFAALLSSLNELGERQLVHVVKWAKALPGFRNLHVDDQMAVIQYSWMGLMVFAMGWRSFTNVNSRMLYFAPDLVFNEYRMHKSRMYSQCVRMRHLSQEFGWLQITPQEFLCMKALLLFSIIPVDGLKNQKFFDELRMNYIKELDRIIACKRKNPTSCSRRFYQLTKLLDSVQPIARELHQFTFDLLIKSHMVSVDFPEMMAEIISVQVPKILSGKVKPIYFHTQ

Test [2] deals with T2, Androgen receptor (Homo sapiens, UniProt P10275).
T2 sequence (P10275 whole entry): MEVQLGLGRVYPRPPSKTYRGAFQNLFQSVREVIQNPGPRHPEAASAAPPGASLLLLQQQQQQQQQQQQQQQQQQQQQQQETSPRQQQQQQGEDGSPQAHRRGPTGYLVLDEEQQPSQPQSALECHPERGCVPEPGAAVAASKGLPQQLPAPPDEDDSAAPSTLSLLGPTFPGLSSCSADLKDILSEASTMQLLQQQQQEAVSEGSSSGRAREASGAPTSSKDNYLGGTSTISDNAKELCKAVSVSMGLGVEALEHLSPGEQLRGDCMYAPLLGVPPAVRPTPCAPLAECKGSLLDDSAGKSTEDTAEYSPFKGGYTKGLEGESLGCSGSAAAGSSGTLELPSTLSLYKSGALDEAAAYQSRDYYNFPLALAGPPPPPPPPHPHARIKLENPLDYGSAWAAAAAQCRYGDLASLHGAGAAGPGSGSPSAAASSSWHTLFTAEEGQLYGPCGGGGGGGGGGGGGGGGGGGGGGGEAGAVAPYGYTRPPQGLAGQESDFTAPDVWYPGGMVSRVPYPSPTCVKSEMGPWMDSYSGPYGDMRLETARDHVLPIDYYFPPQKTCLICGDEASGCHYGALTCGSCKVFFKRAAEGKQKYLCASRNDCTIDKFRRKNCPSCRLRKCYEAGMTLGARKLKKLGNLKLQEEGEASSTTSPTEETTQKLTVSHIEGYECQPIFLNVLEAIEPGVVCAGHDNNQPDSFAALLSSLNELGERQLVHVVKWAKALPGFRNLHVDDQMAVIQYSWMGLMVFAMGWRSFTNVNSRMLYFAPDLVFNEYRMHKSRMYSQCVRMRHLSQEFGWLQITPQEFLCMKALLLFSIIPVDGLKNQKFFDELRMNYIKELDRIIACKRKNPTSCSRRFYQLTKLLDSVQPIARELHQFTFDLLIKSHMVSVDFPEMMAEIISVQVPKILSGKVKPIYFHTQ

Test [3] has as its target Hydroxycarboxylic acid receptor 2 (Homo sapiens, UniProt Q8TDS4).
Test [4] deals with 5-hydroxytryptamine receptor 2A (Homo sapiens, UniProt P28223).
In test [5] the target is Voltage-dependent L-type calcium channel subunit alpha-1C (Homo sapiens, UniProt Q13936). Format: functional, cell-based.
Test [6] addresses Gamma-aminobutyric acid type B receptor subunit 1 (Homo sapiens, UniProt Q9UBS5).
The target in test [7] is T3, Estrogen receptor (Homo sapiens, UniProt P03372).
T3 sequence (P03372 whole entry): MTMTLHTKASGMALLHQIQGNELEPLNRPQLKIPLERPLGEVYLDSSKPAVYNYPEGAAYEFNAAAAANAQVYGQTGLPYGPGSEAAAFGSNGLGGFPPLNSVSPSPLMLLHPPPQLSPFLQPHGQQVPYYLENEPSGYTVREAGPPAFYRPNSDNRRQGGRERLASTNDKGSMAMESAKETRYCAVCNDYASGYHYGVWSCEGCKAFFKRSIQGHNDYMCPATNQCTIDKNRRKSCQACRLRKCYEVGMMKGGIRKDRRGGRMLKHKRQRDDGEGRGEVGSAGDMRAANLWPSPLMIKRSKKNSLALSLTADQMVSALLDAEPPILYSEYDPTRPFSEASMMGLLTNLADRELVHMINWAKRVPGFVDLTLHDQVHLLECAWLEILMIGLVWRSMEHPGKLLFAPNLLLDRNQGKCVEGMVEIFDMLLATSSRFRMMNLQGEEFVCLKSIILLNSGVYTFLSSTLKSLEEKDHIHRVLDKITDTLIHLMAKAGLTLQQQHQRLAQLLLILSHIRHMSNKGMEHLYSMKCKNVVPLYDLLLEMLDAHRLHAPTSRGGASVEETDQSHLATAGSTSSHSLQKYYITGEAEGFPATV
It counts as functional.

Test [8] addresses Vascular endothelial growth factor receptor 2 (Homo sapiens, UniProt P35968). Format: functional.
Further: assay procedure not described here.

Sequence of Voltage-dependent L-type calcium channel subunit alpha-1C (Q13936 whole entry): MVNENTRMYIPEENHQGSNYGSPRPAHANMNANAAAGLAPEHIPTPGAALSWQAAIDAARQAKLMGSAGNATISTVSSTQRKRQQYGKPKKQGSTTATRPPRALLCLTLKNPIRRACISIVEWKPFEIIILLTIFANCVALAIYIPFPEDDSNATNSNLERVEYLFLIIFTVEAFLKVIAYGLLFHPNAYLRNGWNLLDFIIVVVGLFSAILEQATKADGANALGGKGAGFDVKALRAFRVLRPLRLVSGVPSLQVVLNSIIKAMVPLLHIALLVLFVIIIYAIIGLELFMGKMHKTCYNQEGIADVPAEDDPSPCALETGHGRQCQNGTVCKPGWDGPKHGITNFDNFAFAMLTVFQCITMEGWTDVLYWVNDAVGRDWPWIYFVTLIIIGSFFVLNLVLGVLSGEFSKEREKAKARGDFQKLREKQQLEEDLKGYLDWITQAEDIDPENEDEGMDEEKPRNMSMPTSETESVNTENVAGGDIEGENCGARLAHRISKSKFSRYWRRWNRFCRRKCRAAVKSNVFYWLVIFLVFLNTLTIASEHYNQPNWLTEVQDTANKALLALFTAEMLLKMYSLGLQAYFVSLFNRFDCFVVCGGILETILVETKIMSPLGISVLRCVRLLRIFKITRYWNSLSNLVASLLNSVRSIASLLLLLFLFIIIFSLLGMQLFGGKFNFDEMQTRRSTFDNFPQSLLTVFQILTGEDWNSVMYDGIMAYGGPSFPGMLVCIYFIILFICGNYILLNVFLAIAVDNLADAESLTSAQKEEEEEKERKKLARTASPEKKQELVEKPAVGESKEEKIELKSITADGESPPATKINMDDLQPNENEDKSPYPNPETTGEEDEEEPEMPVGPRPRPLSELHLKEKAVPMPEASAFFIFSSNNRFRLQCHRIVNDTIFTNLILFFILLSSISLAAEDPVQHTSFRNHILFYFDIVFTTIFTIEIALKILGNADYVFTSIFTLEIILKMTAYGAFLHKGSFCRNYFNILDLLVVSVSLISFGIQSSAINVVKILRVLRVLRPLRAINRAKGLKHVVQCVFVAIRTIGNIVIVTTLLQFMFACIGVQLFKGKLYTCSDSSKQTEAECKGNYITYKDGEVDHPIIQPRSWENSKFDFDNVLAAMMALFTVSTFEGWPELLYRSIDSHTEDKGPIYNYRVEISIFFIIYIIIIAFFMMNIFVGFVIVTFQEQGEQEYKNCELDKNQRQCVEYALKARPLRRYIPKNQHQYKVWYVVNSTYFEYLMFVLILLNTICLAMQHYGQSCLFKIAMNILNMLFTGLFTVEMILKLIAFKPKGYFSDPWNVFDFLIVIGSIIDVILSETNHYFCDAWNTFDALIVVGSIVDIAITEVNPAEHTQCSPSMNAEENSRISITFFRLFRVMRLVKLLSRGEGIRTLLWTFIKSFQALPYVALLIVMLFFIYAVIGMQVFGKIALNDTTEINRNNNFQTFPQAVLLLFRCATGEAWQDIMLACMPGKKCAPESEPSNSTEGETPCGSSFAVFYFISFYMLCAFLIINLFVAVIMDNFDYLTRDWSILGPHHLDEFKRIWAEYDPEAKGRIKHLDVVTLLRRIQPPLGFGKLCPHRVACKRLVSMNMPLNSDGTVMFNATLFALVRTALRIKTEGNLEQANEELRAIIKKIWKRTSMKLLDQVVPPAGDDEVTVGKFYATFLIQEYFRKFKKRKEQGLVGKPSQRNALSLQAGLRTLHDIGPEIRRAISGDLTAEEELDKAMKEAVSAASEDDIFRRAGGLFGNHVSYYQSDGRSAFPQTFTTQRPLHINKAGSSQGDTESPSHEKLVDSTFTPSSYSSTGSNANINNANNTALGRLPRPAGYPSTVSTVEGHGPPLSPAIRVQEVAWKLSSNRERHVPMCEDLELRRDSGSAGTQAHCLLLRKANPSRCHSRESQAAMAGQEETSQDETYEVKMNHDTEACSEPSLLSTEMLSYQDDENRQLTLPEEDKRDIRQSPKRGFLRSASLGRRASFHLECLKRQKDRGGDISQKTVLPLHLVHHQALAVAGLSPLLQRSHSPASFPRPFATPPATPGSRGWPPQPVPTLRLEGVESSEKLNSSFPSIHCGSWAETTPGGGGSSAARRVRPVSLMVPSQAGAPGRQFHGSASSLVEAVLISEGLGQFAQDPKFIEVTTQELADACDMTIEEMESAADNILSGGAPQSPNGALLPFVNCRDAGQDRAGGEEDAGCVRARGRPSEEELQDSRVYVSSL
Sequence of 5-hydroxytryptamine receptor 2A (P28223 whole entry): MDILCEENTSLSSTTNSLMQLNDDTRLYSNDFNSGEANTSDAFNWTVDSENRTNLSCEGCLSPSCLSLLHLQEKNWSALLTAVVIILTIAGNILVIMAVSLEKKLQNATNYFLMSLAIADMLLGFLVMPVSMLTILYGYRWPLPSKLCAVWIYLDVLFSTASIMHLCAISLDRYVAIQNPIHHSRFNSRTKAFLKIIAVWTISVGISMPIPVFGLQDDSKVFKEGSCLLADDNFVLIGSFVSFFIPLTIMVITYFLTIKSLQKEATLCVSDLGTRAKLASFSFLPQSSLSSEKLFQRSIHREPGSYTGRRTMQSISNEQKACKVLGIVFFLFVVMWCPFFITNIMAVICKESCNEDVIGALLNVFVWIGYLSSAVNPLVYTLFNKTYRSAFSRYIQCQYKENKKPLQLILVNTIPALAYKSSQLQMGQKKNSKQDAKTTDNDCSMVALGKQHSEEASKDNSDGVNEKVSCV
Sequence of Gamma-aminobutyric acid type B receptor subunit 1 (Q9UBS5 whole entry): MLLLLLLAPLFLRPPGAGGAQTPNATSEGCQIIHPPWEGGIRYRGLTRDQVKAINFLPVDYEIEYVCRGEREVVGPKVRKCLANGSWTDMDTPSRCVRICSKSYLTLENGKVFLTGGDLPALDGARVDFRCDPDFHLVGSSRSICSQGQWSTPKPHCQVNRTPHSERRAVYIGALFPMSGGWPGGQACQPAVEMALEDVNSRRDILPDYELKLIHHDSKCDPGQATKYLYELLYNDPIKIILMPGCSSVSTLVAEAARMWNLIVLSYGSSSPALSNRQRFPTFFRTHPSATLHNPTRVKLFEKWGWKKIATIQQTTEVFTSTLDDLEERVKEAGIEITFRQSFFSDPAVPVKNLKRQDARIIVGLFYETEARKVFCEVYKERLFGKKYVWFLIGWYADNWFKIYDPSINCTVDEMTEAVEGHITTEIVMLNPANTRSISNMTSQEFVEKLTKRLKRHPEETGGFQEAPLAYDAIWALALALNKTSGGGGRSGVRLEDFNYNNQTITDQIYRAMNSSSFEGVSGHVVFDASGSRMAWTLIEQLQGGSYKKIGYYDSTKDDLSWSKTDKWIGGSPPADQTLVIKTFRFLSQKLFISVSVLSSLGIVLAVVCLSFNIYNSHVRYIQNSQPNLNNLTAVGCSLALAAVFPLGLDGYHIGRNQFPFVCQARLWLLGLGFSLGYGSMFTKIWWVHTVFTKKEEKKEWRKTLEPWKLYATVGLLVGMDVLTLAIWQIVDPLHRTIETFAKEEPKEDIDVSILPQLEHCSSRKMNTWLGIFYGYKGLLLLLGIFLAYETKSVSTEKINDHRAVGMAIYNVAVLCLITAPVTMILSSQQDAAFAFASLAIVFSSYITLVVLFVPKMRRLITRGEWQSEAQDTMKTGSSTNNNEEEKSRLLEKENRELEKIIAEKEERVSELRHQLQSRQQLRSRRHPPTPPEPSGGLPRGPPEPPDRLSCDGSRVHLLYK
Sequence of Hydroxycarboxylic acid receptor 2 (Q8TDS4 whole entry): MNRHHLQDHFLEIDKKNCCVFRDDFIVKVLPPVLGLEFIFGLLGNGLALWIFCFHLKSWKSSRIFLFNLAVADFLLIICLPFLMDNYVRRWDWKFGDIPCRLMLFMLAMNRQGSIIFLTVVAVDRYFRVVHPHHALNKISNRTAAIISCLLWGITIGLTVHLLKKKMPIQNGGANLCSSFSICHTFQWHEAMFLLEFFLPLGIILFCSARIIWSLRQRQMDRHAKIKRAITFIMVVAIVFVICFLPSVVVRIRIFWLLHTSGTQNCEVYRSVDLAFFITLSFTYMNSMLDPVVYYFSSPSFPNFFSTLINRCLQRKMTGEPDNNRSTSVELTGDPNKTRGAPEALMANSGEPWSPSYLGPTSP

With `CC(C(=O)O)c1ccc(N2CC=CC2)c(Cl)c1` (stereo unspecified) [PIRPROFEN], the half-maximal activity concentration (AC50) in test [1] is above 30 µM; in test [2], above 30 µM; in test [3], above 10 µM; in test [4] it was above 10 µM.

In turn, `CC(=O)OC[C@H]1O[C@@H](n2ccc(=O)[nH]c2=O)[C@H](OC(C)=O)[C@@H]1OC(C)=O` [URIDINE TRIACETATE] yielded an AC50 in test [2] above 30 µM.

In the case of `CCC(=O)c1c(O)cc(O)cc1O` [FLOPROPIONE], the half-maximal activity concentration (AC50) in test [2] is above 30 µM.

`O=C1c2c(O)c(=O)ccn2N([C@@H]2c3ccccc3SCc3c2ccc(F)c3F)[C@@H]2COCCN12` [BALOXAVIR]: the AC50 in test [2] is above 30 µM; in test [5], above 50 µM.

For the molecule `O=C(CCCCCCC(=O)Nc1ccccc1)NO` [VORINOSTAT], the AC50 in test [6] and in test [4] was above 10 µM in each case.

Turning to `CCc1nn(CCCN2CCN(c3cccc(Cl)c3)CC2)c(=O)n1CCOc1ccccc1` [NEFAZODONE], in test [6], the half-maximal activity concentration (AC50) is above 10 µM.

In the case of `CCOC(=O)N[C@@H]1CC[C@@H]2[C@@H](C1)C[C@H]1C(=O)O[C@H](C)[C@H]1[C@H]2/C=C/c1ccc(-c2cccc(F)c2)cn1` [VORAPAXAR], the concentration at half-maximal activity (AC50) in test [2] is above 30 µM; in test [5], above 50 µM.

`COc1cc(Nc2c(C#N)cnc3cc(OCCCN4CCN(C)CC4)c(OC)cc23)c(Cl)cc1Cl` [BOSUTINIB] came in with a half-maximal activity concentration (AC50) in test [6] above 10 µM.

As to `C#C[C@]1(O)CC[C@H]2[C@@H]3CCc4cc(O)ccc4[C@H]3CC[C@@]21C` [ETHINYL ESTRADIOL], the AC50 in test [6] and in test [3] was above 10 µM throughout.

For `CCc1ccc(CCOc2ccc(CC3SC(=O)NC3=O)cc2)nc1` (stereo unspecified) [PIOGLITAZONE], the AC50 in test [6] is above 10 µM.

For `CCO/N=C(\C(=O)N[C@@H]1C(=O)N2C(C(=O)[O-])=C(Sc3nc(-c4cc[n+](C)cc4)cs3)CS[C@H]12)c1nsc(N)n1` [CEFTAROLINE], the AC50 in test [2] was above 30 µM.

On to `CCCS(=O)(=O)Nc1ccc(F)c(C(=O)c2c[nH]c3ncc(-c4ccc(Cl)cc4)cc23)c1F` [VEMURAFENIB], for which the AC50 in test [5] was above 30 µM.

On to `CCN(CC)CCNC(=O)c1cc(Cl)c(N)cc1OC` [METOCLOPRAMIDE], for which the AC50 in test [3] is above 10 µM.

As to `CN(CCOc1ccc(NS(C)(=O)=O)cc1)CCc1ccc(NS(C)(=O)=O)cc1` [DOFETILIDE], the AC50 in test [3] and in test [4] was above 10 µM in each case.

Turning to `OCc1cc([C@@H](O)CNCCCCCCOCCOCc2c(Cl)cccc2Cl)ccc1O` [VILANTEROL], in test [7], the AC50 is above 30 µM.

Regarding `CC(C)OC(=O)[C@H](C)N[P@](=O)(OC[C@H]1O[C@@H](n2ccc(=O)[nH]c2=O)[C@](C)(F)[C@@H]1O)Oc1ccccc1` [SOFOSBUVIR], the AC50 in test [2] was above 30 µM; in test [5], above 50 µM.

As to `NS(=O)(=O)c1cc2c(cc1Cl)NCNS2(=O)=O` [HYDROCHLOROTHIAZIDE], in test [6], the AC50 was above 10 µM.

For `COC(=O)[C@@H]1CC2=CC(=O)CC[C@]2(C)[C@@]23O[C@@H]2C[C@@]2(C)[C@@H](CC[C@@]24CCC(=O)O4)[C@H]13` [EPLERENONE], the figures for the AC50 in test [7], in test [8] and in test [4] were above 30 µM, above 30 µM and above 10 µM, respectively.

For `COC(=O)N[C@H](C(=O)N1CCC[C@H]1c1nc(-c2ccc(-c3ccc(-c4c[nH]c([C@@H]5CCCN5C(=O)[C@@H](NC(=O)OC)C(C)C)n4)cc3)cc2)c[nH]1)C(C)C`, the AC50 in test [5] was above 30 µM.

Take `CC(N)Cc1ccccc1` (stereo unspecified) [AMPHETAMINE]: the AC50 was above 30 µM in test [1], above 30 µM in test [7] and above 10 µM in test [4].

With `COc1cc2c(cc1OC)C(=O)C(CC1CCN(Cc3ccccc3)CC1)C2` (stereo unspecified) [DONEPEZIL], the half-maximal activity concentration (AC50) is above 30 µM in test [1], above 30 µM in test [2], above 10 µM in test [6] and above 10 µM in test [4].

For `Cc1ccc(O)c2ncccc12` [TILIQUINOL], the AC50 in test [2] was above 30 µM.

`C[C@H]1O[C@H](O[C@H]2[C@H](O)[C@@H](O)[C@@H](O[C@H]3[C@H](O)[C@@H](O)C(O)O[C@@H]3CO)O[C@@H]2CO)[C@H](O)[C@@H](O)[C@@H]1N[C@H]1C=C(CO)[C@@H](O)[C@H](O)[C@H]1O` (stereo partly specified) [ACARBOSE] registered an AC50 in test [6] above 10 µM.

Turning to `CS(=O)(=O)c1ccc([C@@H](O)[C@@H](CO)NC(=O)C(Cl)Cl)cc1` [THIAMPHENICOL], the AC50 in test [5] is above 50 µM.

In turn, `CCOC(=O)[C@H](CCc1ccccc1)N[C@@H](C)C(=O)N1CCC[C@H]1C(=O)O` came in with an AC50 in test [6] above 10 µM.

In test [1], `C[C@@H]1O[C@@H]1P(=O)(O)O` [FOSFOMYCIN] showed an AC50 above 30 µM.

In the case of `CC(C)NCC(O)COc1ccc(COCCOC(C)C)cc1` (stereo unspecified) [BISOPROLOL], the AC50 in test [1] is above 30 µM; in test [4] it was above 10 µM.

In the case of `C[C@H]1C[C@@H]2[C@H]([C@@H](O)C[C@@]3(C)[C@H]2CC[C@]3(O)C(=O)CO)[C@@]2(C)C=CC(=O)C=C12` [METHYLPREDNISOLONE], the AC50 in test [1] is above 30 µM.

Take `Cc1cccc(C)c1OCC(C)N` (stereo unspecified) [MEXILETINE]: in test [5], the AC50 is above 50 µM.

As for `CC(=O)c1ccc2c(c1)N(CCCN1CCN(CCO)CC1)c1ccccc1S2` [ACETOPHENAZINE], the AC50 in test [7] was determined as 13 µM.

In the case of `C(=N\NC1=NCCN1)/c1c2ccccc2c(/C=N/NC2=NCCN2)c2ccccc12` [BISANTRENE], the concentration at half-maximal activity (AC50) in test [2] is above 30 µM.

`CN1CCCC(n2nc(Cc3ccc(Cl)cc3)c3ccccc3c2=O)CC1` (stereo unspecified) [AZELASTINE] showed a half-maximal activity concentration (AC50) in test [7] above 30 µM.

In turn, `CCC[C@@H]1C[C@@H](C(=O)N[C@@H]([C@H]2O[C@H](SC)[C@H](O)[C@@H](O)[C@H]2O)[C@H](C)Cl)N(C)C1` [CLINDAMYCIN] registered an AC50 in test [3] above 10 µM.

In the case of `CC[C@H](C)C(=O)O[C@H]1C[C@H](O)C=C2C=C[C@H](C)[C@H](CC[C@@H](O)C[C@@H](O)CC(=O)O)[C@H]21` [PRAVASTATIN], in test [7], the half-maximal activity concentration (AC50) was above 30 µM.
